Test results reported in PubChem BioAssay (NCI).
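All cell lines were grown in 96-well plates and treated with compound for 48 hours. At the GI50, growth is halved. At the TGI there is no net growth.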

How the values were obtained:
Assay in all cases: NCI tumour cell line growth inhibition, 48 h
HCC-2998 colon = test system: HCC-2998 colon
HT29 colon = test system: HT29 colon
NCI-H460 lung = test system: NCI-H460 lung
NCI-H226 lung = test system: NCI-H226 lung
UACC-257 melanoma = test system: UACC-257 melanoma
NCI-H23 lung = test system: NCI-H23 lung
HL-60(TB) leukemia = test system: HL-60(TB) leukemia
CCRF-CEM leukemia = test system: CCRF-CEM leukemia
PC-3 prostate = test system: PC-3 prostate
EKVX NSCLC = test system: EKVX NSCLC

Structure (SMILES) | TGI (HCC-2998 colon) [µM] | TGI (HT29 colon) [µM] | TGI (NCI-H460 lung) [µM] | TGI (NCI-H226 lung) [µM] | TGI (UACC-257 melanoma) [µM] | TGI (NCI-H23 lung) [µM] | TGI (HL-60(TB) leukemia) [µM] | TGI (CCRF-CEM leukemia) [µM] | GI50 (HCC-2998 colon) [µM] | GI50 (HT29 colon) [µM] | GI50 (NCI-H460 lung) [µM] | GI50 (NCI-H226 lung) [µM] | GI50 (PC-3 prostate) [µM] | TGI (PC-3 prostate) [µM] | GI50 (UACC-257 melanoma) [µM] | GI50 (NCI-H23 lung) [µM] | GI50 (CCRF-CEM leukemia) [µM] | TGI (EKVX NSCLC) [µM] | GI50 (EKVX NSCLC) [µM] | GI50 (HL-60(TB) leukemia) [µM]
CC(O)c1ccc(C(O)/C(=N\NC(=O)c2ccncc2)c2nc3ccc([N+](=O)[O-])cc3[nH]c2=O)cc1 (configuration not stated) | > 100 | > 100 | > 100 | > 100 | > 100 | > 100 | > 100 | > 100 |  |  |  |  |  |  |  |  |  |  |  | 
Cn1c(=O)c(-c2c(Cl)cccc2Cl)cc2cnc(Nc3ccc(I)cc3)nc21 | 0.213 | 1.56 | 10.4 |  | > 68.8 | 0.469 |  | > 100 | < 0.0293 | 0.122 | < 0.01 | 0.182 | < 0.012 | > 100 | 2.38 | 0.065 | 0.0224 |  |  | 
O=C(CC1(O)C(=O)Nc2ccc([N+](=O)[O-])cc21)c1ccc(Br)cc1 (configuration not stated) | > 100 | > 100 | > 100 | > 100 | > 100 | > 100 | 45.7 | > 100 |  |  |  |  |  |  |  |  |  | > 100 |  | 
c1ccc(N2N=NC3C4CC(C5c6ccccc6C45)C32)cc1 (configuration not stated) |  | 40.3 | > 100 | 96.3 | 76.4 | 75.9 | 85.5 | > 100 |  |  |  |  |  |  |  |  |  | > 100 |  | 
CN(CCCCN)c1ccc2c(=O)[nH][nH]c(=O)c2c1 | > 100 | > 100 | > 100 | > 100 | > 100 | 5.1 | > 100 | > 100 |  |  |  |  |  |  |  |  |  | > 100 |  | 
CC(C)(N)C(=O)N[C@@H]1C(=O)N2[C@@H]1SC(C)(C)[C@@H]2C(=O)O |  | > 100 | > 100 | > 100 | > 100 | > 100 |  |  |  |  |  |  |  | > 100 |  |  |  | > 100 |  | 
NCCCCCCCCCn1c2c(c3ccccc3c1=O)C(=O)c1ccccc1-2 |  | 27.1 | 14.2 |  | 22.7 | 17 | 19.8 | > 50 |  | 8.5 | 2.8 |  | 10.6 | 29.2 | 10.1 | 7.94 | 4.14 | 17.3 | 9.16 | 7.97
COc1cc2oc(-c3ccc(O)cc3)cc(=O)c2c(OC)c1O | > 100 | > 100 | > 100 | > 100 | > 100 | > 100 | > 100 | > 100 |  |  |  |  |  |  |  |  |  | > 100 |  | 
O=C(O)c1ccccc1C1c2ccc(Cl)cc2Oc2cc(Cl)ccc21 | > 100 | > 100 | > 100 |  | > 100 | > 100 | > 100 | > 100 |  |  |  |  |  |  |  |  |  | > 100 |  | 
CCOC(=O)Cn1c(=O)[nH]c(=O)c2[nH]cnc21 | > 100 | > 100 | > 100 |  | > 100 | > 100 | > 100 | > 100 |  |  |  |  |  |  |  |  |  | > 100 |  | 
COC(=O)c1cc2c(nc1C)-c1ccccc1OS2(=O)=O | > 100 | > 100 | > 100 | > 100 | > 100 | > 100 | > 100 | > 100 |  |  |  |  |  |  |  |  |  | > 100 |  | 
c1cnc2nc3n(c2c1)CSC3 | > 100 | > 100 | > 100 | > 100 | > 100 | > 100 | > 100 | > 100 |  |  |  |  |  |  |  |  |  | > 100 |  | 
CC(C)=Cc1cc(C(=O)NCCNC(=O)c2cc(C=C(C)C)nc(NC#N)n2)nc(NC#N)n1 | > 100 | > 100 | > 100 | > 100 | > 100 | > 100 | > 100 | > 100 |  |  |  |  |  |  |  |  |  | > 100 |  | 
Cc1ccc(S(=O)(=O)OC2CSSCC2OS(=O)(=O)c2ccc(C)cc2)cc1 (configuration not stated) | 35.5 | 22 | 31.8 | 33.6 | 22.8 | 33.3 | 22 | 28.3 |  |  |  |  |  |  |  |  |  | 50 |  | 
C1=CC(=NN=P(c2ccccc2)(c2ccccc2)c2ccccc2)C=C1 | > 100 | > 100 | > 100 |  | > 100 | > 100 | > 100 | > 100 |  |  |  |  |  |  |  |  |  | > 100 |  | 
NC(CSC1(c2ccc(Cl)cc2)c2ccccc2-c2ccccc21)C(=O)O (configuration not stated) |  | > 100 | 39.5 | 67.5 | 34.4 | 41.1 | > 100 | > 100 |  |  |  |  |  | 43.5 |  |  |  | > 100 |  | 
O=[P+](O)c1cccnc1 | > 100 | > 100 | > 100 | > 100 | > 100 | > 100 | > 100 | > 100 |  |  |  |  |  |  |  |  |  | > 100 |  | 
O=[N+]([O-])c1cccc([I+]c2ccccc2)c1 |  | 31.2 | 25.3 | 21.3 | 28 | 31.2 | 41.2 | 90.7 |  | 11.9 | 3.56 | 7.12 | 7.78 | 26.1 | 12.1 | 10.9 | 5.27 |  |  | 4.93
COC(=O)Cc1nn2c(nc1=O)sc1ccc3ccccc3c12 | > 100 | > 100 | > 100 | > 100 | > 100 | > 100 | > 100 | > 100 |  |  |  |  |  |  |  |  |  | > 100 |  | 
C=CNC(=S)n1nc(-c2ccccc2NC(=O)C(F)(F)F)c(=O)n(C(=S)NC=C)c1=S | > 100 | 60.1 | 47.3 | 86.6 |  | > 100 |  | > 100 |  |  |  |  |  |  |  |  |  | 69.3 |  | 
COC(=O)C1=Cc2cn(S(=O)(=O)c3ccc(C)cc3)c3cccc(c23)C(C=C(C)C)N1C(C)=O (configuration not stated) | > 100 | > 100 |  | > 100 | > 100 | > 100 | 41.2 | 77.4 |  |  |  |  |  |  |  |  |  | > 100 |  | 
CSCC(COC(C)=O)(CSC)c1ccncc1 | > 100 | > 100 | > 100 |  | > 100 | > 100 | > 100 | > 100 |  |  |  |  |  |  |  |  |  | > 100 |  | 
